Source: PMC8001472, “Novel Selective IDO1 Inhibitors with Isoxazolo[5,4-d]pyrimidin-4(5H)-one Scaffold” (Pharmaceuticals, 2021)

What was measured:
IDO1 [1] = target: T1, IDO1 (Homo sapiens, UniProt P14902); assay: hIDO1 inhibitory potency evaluation (fluorescence assay, NFK-derived fluorophore); assay type: biochemical; set-up: gene encoding human IDO1 residues 6-403 His-tagged at the N-terminus; His tag (N); made in house; host or cells: Escherichia coli NiCo21
Target sequence in this assay (P14902 6-403): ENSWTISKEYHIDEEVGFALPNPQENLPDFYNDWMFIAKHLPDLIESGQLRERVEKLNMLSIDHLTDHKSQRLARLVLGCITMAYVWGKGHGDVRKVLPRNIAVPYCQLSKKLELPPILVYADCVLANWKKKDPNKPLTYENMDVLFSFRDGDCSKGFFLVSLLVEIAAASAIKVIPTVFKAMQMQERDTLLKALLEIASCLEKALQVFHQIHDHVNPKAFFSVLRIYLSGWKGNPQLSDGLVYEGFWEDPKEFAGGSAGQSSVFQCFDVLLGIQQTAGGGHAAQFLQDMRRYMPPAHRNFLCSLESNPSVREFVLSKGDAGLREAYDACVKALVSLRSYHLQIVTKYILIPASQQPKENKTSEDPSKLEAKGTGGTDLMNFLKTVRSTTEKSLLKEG

IDO1 [2] = target: T1, IDO1; assay: Cell-based IDO1 inhibitory assay on IFN-γ treated HeLa cells; set-up: endogenous in cells; host or cells: HeLa cells treated with human IFN-γ
Experimental: (§1) All active compounds were additionally evaluated on a cellular level, starting with the determination of cytotoxicity on Hep G2 cell line using the MTS assay (Figure 3), where inner salt of [3-(4,5-dimethylthiazol-2-yl)-5-(3-carboxymethoxyphenyl)-2-(4-sulfophenyl)-2H-tetrazolium is converted to formazan product, its quantity is directly proportional to the number of living cells. Since the majority of compounds were only partially soluble in a cell medium at concentrations above 100 μM, their effect on cell viability was measured at 50 μM, 10 μM, and 1 μM. […] Taken together, the results obtained from cellular tests reminded us of the necessity to consider the physicochemical properties of compounds even at the early stages of design.
HeLa cells were seeded in 96-well plates (2 × 10^4 cells/well) and maintained in Dulbecco’s modified Eagle’s medium, supplemented with 10% fetal bovine serum (both from Thermo Fisher Scientific, Waltham, MA, USA) and 100 µg/mL gentamicin (Sigma-Aldrich, St. Louis, MO, USA). Following overnight incubation in a humidified chamber at 37 °C and 5% CO2 cells were treated with human IFN-γ (50 ng/mL final concentration). […] The absorbance (λABS = 480 nm) of the yellow color derivate formed after 10 min was measured using a microplate reader (Synergy H4; BioTek Instruments, Inc., Winooski, VT, USA).
Target sequence in this assay (P14902 whole entry, the tested form may be a part): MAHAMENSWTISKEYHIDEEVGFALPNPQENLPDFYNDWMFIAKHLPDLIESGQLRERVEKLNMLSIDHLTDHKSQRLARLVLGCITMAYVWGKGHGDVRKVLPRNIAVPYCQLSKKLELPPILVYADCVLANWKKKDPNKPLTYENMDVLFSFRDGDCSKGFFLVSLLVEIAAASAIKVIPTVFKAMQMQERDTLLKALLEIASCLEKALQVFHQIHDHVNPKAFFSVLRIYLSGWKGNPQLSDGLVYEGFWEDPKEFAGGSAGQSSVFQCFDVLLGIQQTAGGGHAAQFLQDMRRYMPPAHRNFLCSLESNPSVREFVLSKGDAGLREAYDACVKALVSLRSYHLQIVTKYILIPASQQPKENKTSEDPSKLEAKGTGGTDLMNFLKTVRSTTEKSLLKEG

Hep G2 cell line = assay: Cytotoxicity, MTS cell proliferation assay; assay type: cell-based; conditions: Hep G2 cells
Experimental: as §1
Cytotoxicity of the compounds was determined on HepG2 cell line using the MTS cell proliferation assay (CellTiter 96 AQueous One Solution Cell Proliferation Assay, Promega, Madison, WI, USA). The cells were seeded in 96-well plates (3 × 10^4 cells/well) and maintained in Dulbecco’s Modified Eagle’s Medium, supplemented with 10% fetal bovine serum (both from Thermo Fisher Scientific, Waltham, MA, USA) and 100 µg/mL gentamicin (Sigma-Aldrich, St. Louis, MO, USA). Following overnight incubation in a humidified chamber at 37 °C and 5% CO2 cells were treated with the compounds of interest at final concentrations of 1 µM, 10 µM, 50 µM, 100 µM, 150 µM, and 200 µM. After 24h incubation under the same conditions, 100 µL of the medium from each well were collected and mixed with 10 µL of MTS solution. Following 3h incubation, the absorbance (λABS = 490 nm) was measured using a microplate reader (Synergy H4; BioTek Instruments, Inc., Winooski, VT, USA). The results are expressed as means of triplicates ± standard deviation of three independent experiments.

O=C(Cn1cnc2onc(-c3ccc(F)cc3)c2c1=O)Nc1ccc(C(F)(F)F)cc1 [Compound 23]
hIDO1 inhibition (in words) (IDO1 [1]): low micromolar range | IC50 (IDO1 [1]; recombinant hIDO1, mean ± SD of at least two independent determinations, read-out: IDO1 IC50): 23 µM | cell-based IDO1 inhibition (IDO1 [2]): no activity was detected | cytotoxicity profile (Hep G2 cell line): satisfying cytotoxicity profile
